Tested on: bronchoconstriction induced by PAF
Assay: Effect on bronchoconstriction induced by platelet activating factor (PAF) in guinea pigs (Konzett-Rossler method)
Format: in vivo, guinea pig (male Hartley)
Conditions: Cavia porcellus, po, 30 mg/kg orally 1 hour before PAF (1 μg/kg i.v.), suspended in 5% gum arabic, recorded for 15 minutes, male Hartley guinea pigs
Protocol: Effect On bronchoconstriction Induced By Platelet Activating Factor (PAF) In Guinea Pigs
Male Hartley guinea pigs (body weight 500 g) were used. The bronchoconstriction reaction in the guinea pig which has intravenously received PAF (1 μg/Kg) was measured by the Konzett-Rossler method. The trachea of the guinea pig with its back fixed was incised under anesthesia condition with urethane (intraperitoneal injection, 1.50 g/kg) and connected with an artificial respirator via a cannula. The branch of the tracheal cannula was connected with a transducer (7020 type, Ugobasile). Air was sent to the trachea at the volume of 3-7 ml/stroke, at the rate of 70 strokes/min. at load pressure of 10 cm H2 O to lung and overflowed air volume was recorded with Rectegraph (Recte-Hori-8s, Sanei Sokuki) via the transducer. After the guinea pig was treated with gallamine (1 mg/kg, i.v.), PAF (1 μg/kg) dissolved in a physiological saline solution was administered to the guinea pig via a jugular venous cannula and the bronchoconstriction reaction induced thereby was recorded for 15 minutes. The drug (30 mg/kg) suspended in a 5% gum arabic solution was administered orally 1 hour before the injection of PAF.

SMILES: C[C@@H](CSc1ccc2nccn2n1)CS(N)(=O)=O [Example 35, (+)-6-[(2-(S)-methyl-3-sulfamoylpropyl)thio]imidazo[1,2-b]pyridazine]
- inhibition in vivo at 30 mg/kg: 79%

SMILES: O=S(=O)(CCSc1ccc2nccn2n1)NC1CC1 [Example 25, 6-[2-(N-cyclopropylsulfamoyl)ethylthio] imidazo[1,2-b]pyridazine]
- inhibition in vivo at 30 mg/kg: 47%

SMILES: NS(=O)(=O)CC(CSc1ccc2nccn2n1)c1ccccc1 (stereo not drawn) [Example 33]
- inhibition in vivo at 30 mg/kg: 52%

SMILES: C[C@H](COc1ccc2nccn2n1)CS(N)(=O)=O [Example 40, (+)-6-[(2-(R)-methyl-3-sulfamoylpropyl)oxy]imidazo[1,2-b]pyridazine]
- inhibition in vivo at 30 mg/kg: 53%

SMILES: NS(=O)(=O)CCCCCSc1ccc2nccn2n1 [Example 29, 6-(5-sulfamoylpentylthio)imidazo[1,2-b]pyridazine]
- inhibition in vivo at 30 mg/kg: 51%

SMILES: CC(CSc1ccc2nccn2n1)CS(N)(=O)=O (stereo not drawn) [Example 31]
- inhibition in vivo at 30 mg/kg: 74%

SMILES: CC(C)(COc1ccc2nccn2n1)CS(N)(=O)=O [Example 39, 6-[(2,2-dimethyl-3-sulfamoylpropyl)oxy]imidazo[1,2-b]pyridazine]
- inhibition in vivo at 30 mg/kg: 72%

SMILES: NS(=O)(=O)CCCSc1ccc2nccn2n1 [Example 1, 6-(3-sulfamoylpropylthio)imidazo [1,2-b]pyridazine]
- inhibition in vivo at 30 mg/kg: 71%

SMILES: CC(C)(COc1ccc2ncc(Cl)n2n1)CS(N)(=O)=O [Example 45, 3-chloro-6-[(2,2-dimethyl-3-sulfamoylpropyl)oxy]imidazo[1,2-b]pyridazine]
- inhibition in vivo at 30 mg/kg: 50%

SMILES: NS(=O)(=O)CCCCSc1ccc2nccn2n1 [Example 30]
- inhibition in vivo at 30 mg/kg: 73%

SMILES: O=S(=O)(CCCSc1ccc2nccn2n1)NCCc1cccnc1 [Example 19]
- inhibition in vivo at 30 mg/kg: 41%

SMILES: CCC(CC)(COc1ccc2nccn2n1)CS(N)(=O)=O [Example 47, 6-[(2,2-diethyl-3-sulfamoylpropyl)oxy]imidazo[1,2-b]pyridazine]
- inhibition in vivo at 30 mg/kg: 90%

SMILES: CC(C)(CSc1ccc2nccn2n1)CS(N)(=O)=O [Example 37, 6-[(3-sulfamoyl-2,2-dimethylpropyl)thio]imidazo[1,2-b]pyridazine]
- inhibition in vivo at 30 mg/kg: 99%

SMILES: CCC(CSc1ccc2nccn2n1)CS(N)(=O)=O (stereo not drawn) [Example 32]
- inhibition in vivo at 30 mg/kg: 80%

SMILES: NS(=O)(=O)CCSc1ccc2nccn2n1 [Example 26]
- inhibition in vivo at 30 mg/kg: 42%

SMILES: CN(C)S(=O)(=O)CCCSc1ccc2nccn2n1 [Example 9]
- inhibition in vivo at 30 mg/kg: 52%

SMILES: Cn1cccc1CCNS(=O)(=O)CCCSc1ccc2nccn2n1 [Example 20]
- inhibition in vivo at 30 mg/kg: 41%

SMILES: CCC(COc1ccc2nccn2n1)CS(N)(=O)=O (stereo not drawn) [Example 42]
- inhibition in vivo at 30 mg/kg: 55%

SMILES: NS(=O)(=O)CCC(Sc1ccc2nccn2n1)c1ccccc1 (stereo not drawn) [Example 34]
- inhibition in vivo at 30 mg/kg: 38%

SMILES: NS(=O)(=O)CCCOc1ccc2nccn2n1 [Example 41]
- inhibition in vivo at 30 mg/kg: 66%

SMILES: NS(=O)(=O)CCCSc1ccc2ncc(Cl)n2n1 [Example 43, 3-chloro-6[(3-sulfamoylpropyl)thio]imidazo[1,2-b]pyridazine]
- inhibition in vivo at 30 mg/kg: 54%
